# Assay results reported in patent US20060111368A1, “Phosphodiesterase inhibitor” (Kyowa Hakko Kogyo Co., Ltd., priority 2002, published 2006).
# Structures can show the parent of a compound that is named as a salt.
# Target: T1, PDE10A (Homo sapiens, UniProt Q9Y233)
# T1 construct: made in house; host or cells: Sf9 insect cells (baculovirus, pVL1393)
# Assay: Activity of inhibiting PDE10A activity ([3H]cAMP decomposition inhibiting test)
# Assay type: biochemical
# Conditions: substrate [3H]cAMP 0.2 μmol/L
# Method: Activity of Inhibiting PDE10A Activity (^3H]cAMP Decomposition Inhibiting Test)
# PCR was performed using DNAs having base sequences described in SEQ ID NO. 1 and SEQ ID NO. 2 as primers and human kidney cDNA as a template to prepare a plasmid containing amplified fragments. The plasmid was cleaved with restriction endonucleases Pst I and Xba I to obtain a Pst I-Xba I fragment of 0.7 kb.
# Meanwhile, Est clone (Cosmo Bio, Tokyo) of GenBank, ACCESSION WO 4835 was cleaved with restriction endonucleases Kpn I and Pst I to obtain a Kpn I-Pst I fragment of 1.5 kb.
# The resulting Pst I-Xba I fragment of 0.7 kb and Kpn I-Pst I fragment of 1.5 kb were subcloned in a Kpn I-Xba I site of pBluescript II KS(−) (STRATAGENE, La Jolla, Calif., USA),to construct a plasmid having a cDNA fragment completely including a catalyst region of PDE10A. Subsequently, the plasmid was cleaved with restriction endonucleases Kpn I and Not I to obtain a Kpn I-Not I fragment of 2.2 kb.
# The resulting Kpn I-Not I fragment of 2.2 kb and a linker having a BamH I-Kpn I cleavage surface prepared by synthetic DNA having base sequences described in SEQ ID NOS. 3 and 4 were subcloned in a BamH I-Not I site of pVL1393 (PharMingen, San Diego, Calif., USA) to obtain a plasmid for preparation of Baculovirus. The plasmid contains a DNA encoding a peptide in which methionine, FLAG tag and a peptide having a 64th to 779th amino acid sequence of PDE10A [GenBank, ACCESSION NP 006652: Gene, vol. 234, p. 109 (1999), J. Biol. Chem., vol. 274, p. 18438 (1999)] are bound in the order.
# The above gene recombinational manipulation was performed according to the method described in Molecular Cloning, 2nd edition, Cold Spring Harbor Laboratory Press, New York (1989).
# The expression of PDE10A was conducted according to the Baculovirus expression vector system manual (PharMingen) using insect cells. As insect cells, Sf9 cells (Asahi Technoglass, Tokyo) were used. Sf9 cells were infected with a supernatant (co-transfection sup) containing PDE10A expression virus prepared according to the manual, and cultured at 27° C. for 4 days. The cells were recovered, washed with a phosphate-buffered saline (PBS), and then suspended in an extraction solution [20 mmol/L Tris-acetate (pH 7.5), 2 mmol/L MgCl2, 1 mmol/L dithiothreitol, 1 mmol/L ethylenediaminetetraacetic acid (EDTA), 0.25 mol/L sucrose, 250 unit/mL aprotinin, 40 μg/mL phenylmethylsulfonyl fluoride, and 1 μg/mL pepstatin A]. The cells were disrupted in ice with the maximum output under conditions of 5 seconds and five times using an ultrasonic disruption machine (TOMY model UR-200R, TOMY, Tokyo). A soluble fraction was obtained by centrifugation under 10,000 rpm of the fraction at 4° C. for 30 minutes, and the resulting soluble fraction was used for measuring the PDE activity.
# The PDE activity was measured according to the method described in Methods Enzymol., vol. 159, p. 457 (1988).
# Using [^3H]cAMP as a substrate, an enzyme reaction was conducted in a reaction solution containing 300 μL of 50 mmol/L N,N-bis (2-hydroxyethyl)-2-aminoethanesulfonic acid (pH 7.2), 1 mmol/L MgCl2 and 0.1 mmol/L ethylene glycol-bis (β-aminoethyl ether)-N,N,N′,N′-tetraacetic acid: EGTA). The concentration of the substrate was 0.2 μmol/L. To 95 μL of an enzyme dilute solution were added 5 μL of a test compound (DMSO solution) and 200 μL of a substrate solution. The mixture was incubated at 30° C. for 20 minutes, and then HCl was added to stop the reaction. The reaction product (5′-AMP) was converted to adenosine using 5′-nucleotidase, and separated the unreacted product from the reactant by DEAE-Sephadex A-25 column (Amersham Pharmacia Biotech, Uppsala, Sweden). The elute was moved to scintillation vials, 6 mL of Ultima Gold (Packard Instrument, Meriden, Conn., USA) was added, and the radioactivity was measured for 2 minutes using a liquid scintillation counter (Beckman LS6500, Beckman, Tokyo),. […]
# T1 sequence (Q9Y233 340-1055): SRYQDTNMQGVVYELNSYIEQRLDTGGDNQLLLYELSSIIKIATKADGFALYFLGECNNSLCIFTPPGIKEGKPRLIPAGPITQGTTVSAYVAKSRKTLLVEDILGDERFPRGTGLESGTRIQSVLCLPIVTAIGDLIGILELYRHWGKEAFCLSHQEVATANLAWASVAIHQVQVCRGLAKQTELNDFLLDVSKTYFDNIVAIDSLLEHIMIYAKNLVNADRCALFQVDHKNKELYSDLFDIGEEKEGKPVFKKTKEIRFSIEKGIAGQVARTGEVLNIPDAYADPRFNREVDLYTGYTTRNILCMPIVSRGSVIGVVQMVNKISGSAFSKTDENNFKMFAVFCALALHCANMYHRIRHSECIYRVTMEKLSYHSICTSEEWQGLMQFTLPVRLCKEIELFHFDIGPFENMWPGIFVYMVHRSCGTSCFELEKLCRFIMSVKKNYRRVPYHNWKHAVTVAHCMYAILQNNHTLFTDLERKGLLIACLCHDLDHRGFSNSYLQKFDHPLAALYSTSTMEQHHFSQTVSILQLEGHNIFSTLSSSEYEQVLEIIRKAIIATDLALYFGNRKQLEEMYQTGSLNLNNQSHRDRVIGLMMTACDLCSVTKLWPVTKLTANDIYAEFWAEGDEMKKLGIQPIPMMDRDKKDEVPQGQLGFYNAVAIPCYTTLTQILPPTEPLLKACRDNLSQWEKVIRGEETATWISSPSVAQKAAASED
smiles,measurement,setting,value
"Cc1c(-c2ccc(-c3ccccc3CN3CCOCC3)cc2)nc2ccc(F)cc2c1CO [Compound 12, 6-Fluoro-4-hydroxymethyl-3-methyl-2-(2′-morpholinomethylbiphenyl-4-yl)quinoline dihydrochloride]",inhibition at 1 µM,"Test compound concentration 1 μmol/L, read-out: [3H] cAMP decomposition inhibition rate (%)",96%
same,IC50,read-out: IC50 (concentration at which to inhibit [3H]cAMP decomposition by 50%),68 nM
